{"source": "patent US10501516B2", "about": "“Peptide compound” (TAKEDA PHARMACEUTICAL COMPANY LIMITED, priority 2016, dated 2019)", "key": {"male C57BL/6J mouse": {"system": "male C57BL/6J mouse", "test": "Evaluation of feeding suppressive action in mice", "format": "in vivo", "conditions": "30 nmol/kg s.c. once a day for 3 days; 3-days cumulative food consumption vs solvent control", "outline": "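Male C57BL/6J mice, 8-9 weeks, ad libitum fed, given compound (30 or 100 nmol/2 mL in 10% DMSO saline) s.c. at 2 mL/kg once daily for 3 days. Cumulative 3-day food consumption measured by weighing; suppression rate (%) calculated relative to vehicle controls.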"}, "Male DIO C57BL/6J mice": {"system": "Male DIO C57BL/6J mice", "test": "Repeated dosing study in diet-induced obese (DIO) mice", "format": "in vivo, mouse", "conditions": "for ALT / AST / Insulin / TC / TG: plasma, mean ± SD", "description": "Male DIO C57BL/6J mice (40 weeks old) were divided into the groups based on the data of body weight, food intake, and plasma parameters. Vehicle or the compounds (P41) of Example 41 was subcutaneously administered once a day for 4 weeks. Body weight and food intake were monitored during the study. Compounds were dissolved in 10% DMSO/saline. After the study, blood was collected and plasma parameters were measured. At day 29, body composition was measured by EchoMRI (Hitachi Aloka Medical, Ltd., Japan) and the animals were sacrificed. For hematoxylin and eosin (HE) staining, livers were dissected from DIO mice after 4 weeks drug administration described in the above body-weight studies section. Livers were fixed in 4% paraformaldehyde, embedded in paraffin, sectioned, and stained with HE. After processing, the sections were mounted and then examined via light microscopy (NanoZoomer, Hamamatsu Photonics).\nTotal RNA was isolated from the liver using QIAzol reagent (QIAGEN Japan, Tokyo, Japan) and cDNA was synthesized using High-Capacity cDNA Reverse Transcription Kit (Applied Biosystems, CA, USA). Quantitative RT-PCR was performed using the ABI Prism 7900 Sequence Detection System with EXPRESS qPCR Super Mix (Thermo Fisher Scientific Inc. MA. USA). Mixtures of primers and probes (Applied Biosystems) were used for the detection of mRNA (Table 4). The expression levels were normalized to those of beta-actin and Peptidyl isomerase A.\n(§1) Plasma glucose, triglyceride (TG), total cholesterol (TC), aspartate aminotransferase (AST), and alanine aminotransferase (ALT) were analyzed by Autoanalyzer 7180 (Hitachi High-Technologies Corporation, Japan). Blood glycated hemoglobin (GHb) was measured with the automated GHb analyzers (HLC-723G8, Tosoh, Tokyo, Japan). Liver triglyceride content was measured as follows: a piece of tissue was homogenized in saline and lipid was extracted by the addition of hexane:isopropanol (3:2) solution. The lipid phase was collected, dried and then dissolved in isopropanol. The concentration of triglyceride was measured by Triglyceride E-test (Wako Pure Chemical Industries, Ltd, Japan) and triglyceride content per g liver was calculated. Plasma insulin was measured with ELISA Assay kit (Shibayagi Co. Ltd., Japan)."}, "Male ob/ob mice": {"system": "Male ob/ob mice", "test": "Repeated dosing study in ob/ob mice", "format": "in vivo, mouse", "conditions": "for ALT / AST / TC / TG: plasma, mean ± SD", "description": "Male ob/ob mice (9 weeks old) were divided into the groups based on the data of body weight, food intake, and plasma parameters. Vehicle or P41 was subcutaneously administered once a day for 4 weeks. Body weight and food intake were monitored during the study. Compounds were dissolved in 10% DMSO/saline. After the study, blood was collected and plasma parameters were measured. At day 29, the animals were sacrificed.\nas §1"}, "Male C57BL/6J mice": {"system": "Male C57BL/6J mice", "test": "Conditioned taste aversion (CTA) test", "format": "in vivo, mouse", "conditions": "3 nmol/kg s.c.", "description": "Male C57BL/6J (9 weeks old) mice were habituated to time-restricted bottled water supply (2-3 hours/day) and subcutaneous injection of saline for 1 week. Mice were divided into the groups based on the data of body weight and water intake. CTA test was performed according to the following protocol. On day 1 for the first conditioning, mice were given 0.1% sodium saccharin solution to drink for 3 hours. Ten-minutes after supplying the saccharin solution, vehicles, liraglutides and P41 were administered subcutaneously. […] On day 2, mice were given tap water for 3 hours and subcutaneous injection of saline after water supply. On day 3, the second conditioning was conducted as the same procedure used on day 1. On day 4, mice were given tap water for 3 hours without subcutaneous injection. On day 5, both tap water and saccharin solution were supplied to mice for 3 hours without subcutaneous injection and the intake of each fluid was measured. Saccharin preference ratio (%) was calculated according to the following equation: {(amount of saccharin intake)/(amount of saccharin intake+amount of water intake)}×100."}, "[1]": {"conditions": "3 nmol/kg s.c. once a day for 4 weeks"}, "[2]": {"conditions": "10 nmol/kg s.c. once a day for 4 weeks"}, "[3]": {"conditions": "30 nmol/kg s.c. once a day for 4 weeks"}, "[4]": {"conditions": "3, 10 and 30 nmol/kg s.c. once a day for 4 weeks, dose-dependent"}, "[5]": {"conditions": "quantitative RT-PCR, liver, 4 weeks"}, "[6]": {"conditions": "10, 30 and 100 nmol/kg s.c. once a day for 4 weeks"}, "[7]": {"conditions": "100 nmol/kg s.c. once a day for 4 weeks"}}, "note": "Square brackets hold non-standard residues; d marks the D form. Side chains are listed from the residue outwards. Peptide text beside a SMILES is read from it. * marks the point of attachment. NMeY = CN[C@@H](Cc1ccc(O)cc1)C(=O)O; Palmitoyl = CCCCCCCCCCCCCCCC(=O)*; αMeF = C[C@](N)(Cc1ccccc1)C(=O)O; Iva = CC[C@](C)(N)C(=O)O; Aib = CC(C)(N)C(=O)O"}
{"smiles": "CCCCCCCCCCCCCCCC(=O)NCC(=O)NCC(=O)NCC(=O)NCC(=O)NCCCC[C@H](NC(=O)[C@H](CC(=O)O)NC(=O)[C@H](CO)NC(=O)[C@@H](NC(=O)[C@](C)(Cc1ccccc1)NC(=O)[C@@H](NC(=O)CNC(=O)[C@H](CCC(=O)O)NC(=O)C(C)(C)NC(=O)[C@H](Cc1ccc(O)cc1)NC)[C@@H](C)O)[C@@H](C)O)C(=O)N[C@@H](CO)C(=O)N[C@H](C(=O)NC(C)(C)C(=O)N[C@@H](CC(C)C)C(=O)N[C@@H](CCC(=O)O)C(=O)N[C@@H](CCCCN)C(=O)N[C@@H](CCC(N)=O)C(=O)N[C@@H](CCCNC(=N)N)C(=O)N[C@@H](CCC(N)=O)C(=O)N[C@@](C)(CC)C(=O)N[C@@H](CCC(=O)O)C(=O)N[C@@H](Cc1ccccc1)C(=O)N[C@H](C(=O)N[C@@H](CCCNC(=N)N)C(=O)N[C@@H](Cc1c[nH]cn1)C(=O)N[C@@H](CC(C)C)C(=O)N[C@@H](CC(C)C)C(=O)N[C@@H](CC(N)=O)C(=O)N[C@@H](CCCCN)C(=O)NC(C)(C)C(=O)N[C@H](C(=O)N[C@@H](CCCNC(=N)N)C(=O)N[C@@H](CCC(N)=O)C(=O)N[C@@H](CCCNC(=N)N)C(=O)N[C@@H](Cc1ccc(O)cc1)C(N)=O)[C@@H](C)O)C(C)C)[C@@H](C)CC", "note": "[Example 41] (H-[NMeY][Aib]EGT[αMeF]TSDK([Gly-Gly-Gly-Gly-Palmitoyl])SI[Aib]LEKQRQ[Iva]EFVRHLLNK[Aib]TRQRY-NH2)", "values": [{"measurement": "Rate of feeding suppression (%)", "setting": "male C57BL/6J mouse", "value": "−52.1", "unit": "%"}, {"measurement": "decrease in body weight compared with vehicle group", "setting": "Male DIO C57BL/6J mice; [1]", "value": 14.6, "unit": "%"}, {"measurement": "decrease in body weight compared with vehicle group", "setting": "Male DIO C57BL/6J mice; [2]", "value": 30.0, "unit": "%"}, {"measurement": "decrease in body weight compared with vehicle group", "setting": "Male DIO C57BL/6J mice; [3]", "value": 37.1, "unit": "%"}, {"measurement": "lean mass (EchoMRI)", "setting": "Male DIO C57BL/6J mice; 3, 10 and 30 nmol/kg s.c. once a day for 4 weeks", "value": "subtle decrease"}, {"measurement": "fat mass (EchoMRI)", "setting": "Male DIO C57BL/6J mice; [4]", "value": "drastic decrease"}, {"measurement": "inguinal, mesenteric and epididymal fat pad weight", "setting": "Male DIO C57BL/6J mice; [4]", "value": "significantly decreased"}, {"measurement": "liver TG content", "setting": "Male DIO C57BL/6J mice; [4]", "value": "drastically decreased"}, {"measurement": "liver weight", "setting": "Male DIO C57BL/6J mice; [4]", "value": "drastically decreased"}, {"measurement": "ALT", "setting": "Male DIO C57BL/6J mice; [1]", "value": "94.2 ± 32.3", "unit": "U/L"}, {"measurement": "AST", "setting": "Male DIO C57BL/6J mice; [1]", "value": "170.0 ± 37.2", "unit": "U/L"}, {"measurement": "Insulin", "setting": "Male DIO C57BL/6J mice; [1]", "value": "4.9 ± 2.9", "unit": "ng/mL"}, {"measurement": "TC", "setting": "Male DIO C57BL/6J mice; [1]", "value": "253.6 ± 11.9", "unit": "mg/dL"}, {"measurement": "TG", "setting": "Male DIO C57BL/6J mice; [1]", "value": "50.5 ± 16.2", "unit": "mg/dL"}, {"measurement": "ALT", "setting": "Male DIO C57BL/6J mice; [2]", "value": "35.6 ± 9.7", "unit": "U/L"}, {"measurement": "AST", "setting": "Male DIO C57BL/6J mice; [2]", "value": "88.8 ± 11.7", "unit": "U/L"}, {"measurement": "Insulin", "setting": "Male DIO C57BL/6J mice; [2]", "value": "3.7 ± 2.7", "unit": "ng/mL"}, {"measurement": "TC", "setting": "Male DIO C57BL/6J mice; [2]", "value": "189.5 ± 22.1", "unit": "mg/dL"}, {"measurement": "TG", "setting": "Male DIO C57BL/6J mice; [2]", "value": "62.2 ± 16.1", "unit": "mg/dL"}, {"measurement": "ALT", "setting": "Male DIO C57BL/6J mice; [3]", "value": "37.5 ± 7.7", "unit": "U/L"}, {"measurement": "AST", "setting": "Male DIO C57BL/6J mice; [3]", "value": "90.2 ± 10.3", "unit": "U/L"}, {"measurement": "Insulin", "setting": "Male DIO C57BL/6J mice; [3]", "value": "5.2 ± 2.1", "unit": "ng/mL"}, {"measurement": "TC", "setting": "Male DIO C57BL/6J mice; [3]", "value": "173.2 ± 16.4", "unit": "mg/dL"}, {"measurement": "TG", "setting": "Male DIO C57BL/6J mice; [3]", "value": "50.2 ± 6.6", "unit": "mg/dL"}, {"measurement": "hepatic gene expression of inhibitor of fibrosis (MMP2)", "setting": "Male DIO C57BL/6J mice; [5]", "value": "tended to increase"}, {"measurement": "hepatic gene expression related to fibrosis (Timp1, Col1α) and inflammation (CCl2)", "setting": "Male DIO C57BL/6J mice; [5]", "value": "tended to decrease"}, {"measurement": "hepatic lipid droplet, HE staining of liver slices", "setting": "Male DIO C57BL/6J mice; s.c. once a day for 4 weeks", "value": "Reduction of hepatic lipid droplet"}, {"measurement": "GHb", "setting": "Male ob/ob mice; [6]", "value": "significant decrease"}, {"measurement": "body weight and cumulative food intake", "setting": "Male ob/ob mice; [6]", "value": "dose-dependent body weight and cumulative food intake reduction"}, {"measurement": "plasma glucose levels", "setting": "Male ob/ob mice; [6]", "value": "significant decrease"}, {"measurement": "plasma insulin levels", "setting": "Male ob/ob mice; [6]", "value": "Dose-dependent decrease"}, {"measurement": "liver and mesenteric, epididymal, and inguinal adipose tissue weight, and liver TG content", "setting": "Male ob/ob mice; 10, 30 and 100 nmol/kg s.c. once a day for 4 weeks, dose-dependent", "value": "decreased"}, {"measurement": "ALT", "setting": "Male ob/ob mice; [2]", "value": "50.6 ± 23.8", "unit": "U/L"}, {"measurement": "AST", "setting": "Male ob/ob mice; [2]", "value": "82.3 ± 25.0", "unit": "U/L"}, {"measurement": "TC", "setting": "Male ob/ob mice; [2]", "value": "137.0 ± 12.7", "unit": "mg/dL"}, {"measurement": "TG", "setting": "Male ob/ob mice; [2]", "value": "52.4 ± 13.0", "unit": "mg/dL"}, {"measurement": "ALT", "setting": "Male ob/ob mice; [3]", "value": "38.3 ± 9.3", "unit": "U/L"}, {"measurement": "AST", "setting": "Male ob/ob mice; [3]", "value": "83.5 ± 21.5", "unit": "U/L"}, {"measurement": "TG", "setting": "Male ob/ob mice; [3]", "value": "51.6 ± 14.2", "unit": "mg/dL"}, {"measurement": "ALT", "setting": "Male ob/ob mice; [7]", "value": "41.6 ± 10.1", "unit": "U/L"}, {"measurement": "AST", "setting": "Male ob/ob mice; [7]", "value": "77.7 ± 13.1", "unit": "U/L"}, {"measurement": "TC", "setting": "Male ob/ob mice; [7]", "value": "136.8 ± 6.1", "unit": "mg/dL"}, {"measurement": "TG", "setting": "Male ob/ob mice; [7]", "value": "46.9 ± 12.9", "unit": "mg/dL"}, {"measurement": "induction of conditioned taste aversion (emetic effects)", "setting": "Male C57BL/6J mice", "value": "did not induce CTA"}, {"measurement": "Saccharin preference ratio (%)", "setting": "Male C57BL/6J mice; two conditionings, mean ± SD", "value": "76.8 ± 9.5", "unit": "%"}]}
